# Test results taken from patent publication US20100216802A1, “PTERIDINE DERIVATIVES AS POLO-LIKE KINASE INHIBITORS USEFUL IN THE TREATMENT OF CANCER” (CHROMA THERAPEUTICS LTD., priority 2006, published 2010).
# What was measured:
# PLK1 = target: T1, PLK1 (Homo sapiens, UniProt P53350); assay: PLK1 enzyme assay (Z'-LYTE, Invitrogen); format: biochemical; conditions: ATP at or close to Km; read-out: Inhibitor Activity vs PLK1
# T1 construct: purchased Invitrogen (Paisley, UK)
# Experimental: The ability of compounds to inhibit PLK-1 kinase activity was measured in an assay performed by Invitrogen (Paisley, UK). The Z′-LYTE™ biochemical assay employs a fluorescence-based, coupled-enzyme format and is based on the differential sensitivity of phosphorylated and non-phosphorylated peptides to proteolytic cleavage. The peptide substrate is labelled with two fluorophores—one at each end—that make up a FRET pair. In the primary reaction, the kinase transfers the gamma-phosphate of ATP to a single serine or threonine residue in a synthetic FRET-peptide. In the secondary reaction, a site-specific protease recognizes and cleaves non-phosphorylated FRET-peptides. Phosphorylation of FRET-peptides suppresses cleavage by the Development Reagent. Cleavage disrupts FRET between the donor (i.e., coumarin) and acceptor (i.e., fluorescein) fluorophores on the FRET-peptide, whereas uncleaved, phosphorylated FRET-peptides maintain FRET. A […] method, which calculates the ratio (the Emission Ratio) of donor emission to acceptor emission after excitation of the donor fluorophore at 400 nm, is used to quantitate reaction progress.
# The assay is performed at an ATP concentration at, or close to, the Km. After the 60 minute Kinase Reaction incubation at RT, 5 μL of a 1:8 dilution of Development Reagent is added. The assay plate is incubated for a further 60 minutes at RT and read on a fluorescence plate reader.
# Duplicate data points are generated from a ⅓ log dilution series of a stock solution of test compound in DMSO. Nine dilutions steps are made from a top concentration of 10 μM, and a ‘no compound’ blank is included. Data is collected and analysed using XLfit software from IDBS.
# HCT 116 cell line = assay: Cell inhibition assay method A (WST-1, 120 hrs); format: cell-based; conditions: Homo sapiens, HCT-116, method A, read-out: Inhibitor Activity vs HCT 116 cell line (method A)
# Experimental: Cell inhibition assays were carried out using either method A or method B
# Cells were seeded in 96W tissue culture plates (1 well=30 mm^2) at a density of […] per well in 50 μL of the appropriate culture medium (see below). 24 hrs later […] of the compound prepared in the same medium was added as 4 fold dilutions to give final concentrations in the range 0.15 nM-2500 nM (n=6 for each concentration). The plates were then incubated at 37° C., 5% CO2 for 120 hrs. Cell proliferation was assessed using WST-1 (a metabolic indicator dye, Roche Cat no. 1 644 807) according to the manufacturers instructions. The results were calculated as percentage of vehicle response and IC50 values represent the concentration of compound that inhibited the vehicle response by 50%.
# HCT-116 culture medium —Dulbeccos MEM (Sigma D6546) plus 10% heat inactivated fetal calf serum (Hyclone SH30071 Thermo Fischer Scientific) containing 2 mM Glutamine (Sigma cat no G-7513) and 50 U/ml Penicillin and Streptomycin Sulphate (Sigma Cat no P-0781).
# T1 sequence (P53350 whole entry): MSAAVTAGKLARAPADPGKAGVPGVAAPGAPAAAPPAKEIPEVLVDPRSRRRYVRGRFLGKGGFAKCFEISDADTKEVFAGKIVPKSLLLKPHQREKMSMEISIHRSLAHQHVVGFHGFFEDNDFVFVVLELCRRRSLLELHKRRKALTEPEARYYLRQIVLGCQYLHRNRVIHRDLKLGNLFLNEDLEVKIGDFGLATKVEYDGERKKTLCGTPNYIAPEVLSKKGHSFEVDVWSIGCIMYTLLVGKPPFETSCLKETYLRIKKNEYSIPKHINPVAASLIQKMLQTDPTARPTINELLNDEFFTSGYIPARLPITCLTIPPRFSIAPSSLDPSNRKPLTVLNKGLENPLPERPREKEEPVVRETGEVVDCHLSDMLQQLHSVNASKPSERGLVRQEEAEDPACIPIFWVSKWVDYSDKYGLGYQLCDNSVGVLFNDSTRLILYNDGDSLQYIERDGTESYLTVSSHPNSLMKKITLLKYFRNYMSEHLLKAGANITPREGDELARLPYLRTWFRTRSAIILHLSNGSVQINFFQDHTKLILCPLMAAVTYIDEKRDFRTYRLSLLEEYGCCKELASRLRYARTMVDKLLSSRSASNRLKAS
IC50 (PLK1) [nM],IC50 (HCT 116 cell line) [nM],SMILES
< 100,100 to 500,"CC[C@@H]1C(=O)N(C)c2cnc(Nc3ccc(C(=O)Nc4ccc(C[C@H](N)C(=O)OC(C)(C)C)cc4)cc3OC)nc2N1C1CCCC1 [Example 11, tert-Butyl 4-[(4-{[(7R)-8-cyclopentyl-7-ethyl-5-methyl-6-oxo-5,6,7,8-tetrahydropteridin-2-yl]amino}-3-methoxybenzoyl)amino]-L-phenylalaninate]"
< 100,< 100,CC[C@@H]1C(=O)N(C)c2cnc(Nc3ccc(C(=O)NCc4ccc(OCC[C@H](N)C(=O)OC(C)(C)C)cc4)cc3OC)nc2N1C1CCCC1 [Example 12]
< 100,100 to 500,"CC[C@@H]1C(=O)N(C)c2cnc(Nc3ccc(C(=O)N4CCNC(C(=O)OC5CCCC5)C4)cc3OC)nc2N1C1CCCC1 (stereo partly drawn) [Example 13, Cyclopentyl 4-(4-{[(7R)-8-cyclopentyl-7-ethyl-5-methyl-6-oxo-5,6,7,8-tetrahydropteridin-2-yl]amino}-3-methoxybenzoyl)piperazine-2-carboxylate]"
< 100,< 100,"CC[C@@H]1C(=O)N(C)c2cnc(Nc3ccc(C(=O)NCCN4CCNC(C(=O)OC5CCCC5)C4)cc3OC)nc2N1C1CCCC1 (stereo partly drawn) [Example 14, Cyclopentyl 4-{2-[(4-{[(7R)-8-cyclopentyl-7-ethyl-5-methyl-6-oxo-5,6,7,8-tetrahydropteridin-2-yl]amino}-3-methoxybenzoyl)amino]ethyl}piperazine-2-carboxylate]"
< 100,< 100,"CC[C@@H]1C(=O)N(C)c2cnc(Nc3ccc(C(=O)NCCN4CCNC(C(=O)OC(C)(C)C)C4)cc3OC)nc2N1C1CCCC1 (stereo partly drawn) [Example 15, tert-butyl 4-{2-[(4-{[(7R)-8-cyclopentyl-7-ethyl-5-methyl-6-oxo-5,6,7,8-tetrahydropteridin-2-yl]amino}-3-methoxybenzoyl)amino]ethyl}piperazine-2-carboxylate]"
< 100,< 100,CC[C@@H]1C(=O)N(C)c2cnc(Nc3ccc(C(=O)NC4CCN(CC[C@H](N)C(=O)OC5CCCC5)C4)cc3OC)nc2N1C1CCCC1 (stereo partly drawn) [Example 16]
< 100,< 100,"CC[C@@H]1C(=O)N(C)c2cnc(Nc3ccc(C(=O)NC4CCN(CC[C@@H](N)C(=O)OC5CCCC5)C4)cc3OC)nc2N1C1CCCC1 (stereo partly drawn) [Example 17, Cyclopentyl (2R)-2-amino-4-{3-[(4-{[(7R)-8-cyclopentyl-7-ethyl-5-methyl-6-oxo-5,6,7,8-tetrahydropteridin-2-yl]amino}-3-methoxybenzoyl)amino]pyrrolidin-1-yl}butanoate]"
< 100,< 100,"CC[C@@H]1C(=O)N(C)c2cnc(Nc3ccc(C(=O)NC4C5CN(CC[C@H](N)C(=O)OC6CCCC6)CC54)cc3OC)nc2N1C1CCCC1 (stereo partly drawn) [Example 18, Cyclopentyl (2S)-2-amino-4-{6-[(4-{[(7R)-8-cyclopentyl-7-ethyl-5-methyl-6-oxo-5,6,7,8-tetrahydropteridin-2-yl]amino}-3-methoxybenzoyl)amino]-3-azabicyclo[3.1.01]hex-3-yl}butanoate]"
< 100,< 100,"CC[C@@H]1C(=O)N(C)c2cnc(Nc3ccc(C(=O)Nc4ccc(CCC[C@H](N)C(=O)OC5CCCC5)cc4)cc3OC)nc2N1C1CCCC1 [Example 19, Cyclopentyl 5-{4-[(4-{[(7R)-8-cyclopentyl-7-ethyl-5-methyl-6-oxo-5,6,7,8-tetrahydro-pteridin-2-yl]amino}-3-methoxybenzoyl)amino]phenyl}-L-norvalinate]"
< 100,< 100,"CC[C@@H]1C(=O)N(C)c2cnc(Nc3ccc(C(=O)Nc4ccc(/C=C/C[C@H](N)C(=O)OC5CCCC5)cc4)cc3OC)nc2N1C1CCCC1 [Example 20, Cyclopentyl (2S,4E)-2-amino-5-{4-[(4-{[(7R)-8-cyclopentyl-7-ethyl-5-methyl-6-oxo-5,6,7,8-tetrahydropteridin-2-yl]amino}-3-methoxybenzoyl)amino]phenyl}pent-4-enoate]"

# The next lines start with the compound.
SMILES,IC50 (PLK1) [nM],IC50 (HCT 116 cell line) [nM]
"CC[C@@H]1C(=O)N(C)c2cnc(Nc3ccc(OCC[C@H](N)C(=O)OC4CCCC4)cc3)nc2N1C1CCCC1 [Example 3, Cyclopentyl O-(4-{[(7R)-8-cyclopentyl-7-ethyl-5-methyl-6-oxo-5,6,7,8-tetrahydropteridin-2-yl]amino}phenyl)-L-homoserinate]",< 100,100 to 500
"CC[C@@H]1C(=O)N(C)c2cnc(Nc3ccc(OCC[C@H](N)C(=O)OC4CCCC4)cc3OC)nc2N1C1CCCC1 [Example 4, Cyclopentyl O-(4-{[(7R)-8-cyclopentyl-7-ethyl-5-methyl-6-oxo-5,6,7,8-tetrahydropteridin-2-yl]amino}-3-methoxyphenyl)-L-homoserinate]",< 100,< 100
"CC[C@@H]1C(=O)N(C)c2cnc(Nc3ccc(C(=O)NCC[C@H](N)C(=O)OC4CCCC4)cc3OC)nc2N1C1CCCC1 [Example 5, Cyclopentyl (2S)-2-amino-4-[(4-{[(7R)-8-cyclopentyl-7-ethyl-5-methyl-6-oxo-5,6,7,8-tetrahydropteridin-2-yl]amino}-3-methoxybenzoyl)amino]butanoate]",< 100,< 100
"CC[C@@H]1C(=O)N(C)c2cnc(Nc3ccc(C(=O)N[C@@H]4CN[C@H](C(=O)OC5CCCC5)C4)cc3OC)nc2N1C1CCCC1 [Example 6, Cyclopentyl (4S)-4-[(4-{[(7R)-8-cyclopentyl-7-ethyl-5-methyl-6-oxo-5,6,7,8-tetrahydropteridin-2-yl]amino}-3-methoxybenzoyl)amino]-L-prolinate]",< 100,< 100
"CC[C@@H]1C(=O)N(C)c2cnc(Nc3ccc(C(=O)Nc4ccc(C[C@H](N)C(=O)OC5CCCC5)cc4)cc3OC)nc2N1C1CCCC1 [Example 7, Cyclopentyl 4-[(4-{[(7R)-8-cyclopentyl-7-ethyl-5-methyl-6-oxo-5,6,7,8-tetrahydropteridin-2-yl]amino}-3-methoxybenzoyl)amino]-L-phenylalaninate]",100 to 500,< 100
"CC[C@@H]1C(=O)N(C)c2cnc(Nc3ccc(C(=O)NCCCC[C@H](N)C(=O)OC4CCCC4)cc3OC)nc2N1C1CCCC1 [Example 8, Cyclopentyl N^6-(4-{[(7R)-8-cyclopentyl-7-ethyl-5-methyl-6-oxo-5,6,7,8-tetrahydropteridin-2-yl]amino}-3-methoxybenzoyl)lysinate]",< 100,< 100
"CC[C@@H]1C(=O)N(C)c2cnc(Nc3ccc(C(=O)NCc4ccc(OCC[C@H](N)C(=O)OC5CCCC5)cc4)cc3OC)nc2N1C1CCCC1 [Example 9, Cyclopentyl O-(4-{[(4-{[(7R)-8-cyclopentyl-7-ethyl-5-methyl-6-oxo-5,6,7,8-tetrahydropteridin-2-yl]amino}-3-methoxybenzoyl)amino]methyl}phenyl)-L-homoserinate]",100 to 500,< 100
"CC[C@@H]1C(=O)N(C)c2cnc(Nc3ccc(C(=O)NCCN4CCC(C[C@H](N)C(=O)OC5CCCC5)CC4)cc3OC)nc2N1C1CCCC1 [Example 10, Cyclopentyl 3-(1-{2-[(4-{[(7R)-8-cyclopentyl-7-ethyl-5-methyl-6-oxo-5,6,7,8-tetrahydropteridin-2-yl]amino}-3-methoxybenzoyl)amino]ethyl}piperidin-4-yl)alaninate]",< 100,< 100
